In patent US6352958B1, “Cycloimido-substituted benzofused heterocyclic herbicides” (FMC Corporation, priority 1997, dated 2002):

Columns and labels:
Type in all cases: in vivo
[1] = test system: wheat (Triticum aestivum var. Lew); assay: Postemergence herbicidal activity, wheat; conditions: rate of application 0.3 Kg/Ha, rated after 12-17 days
[2] = test system: common chickweed (Stellaria media); assay: Preemergence herbicidal activity, chickweed; conditions: Rate of Application 0.3 Kg/Ha, examined after 12-17 days
[3] = test system: Johnsongrass (Sorghum halepense); assay: Preemergence herbicidal activity, johnsongrass; conditions: Rate of Application 0.3 Kg/Ha, examined after 12-17 days
[4] = test system: morningglory (Ipomea lacunosa or Ipomea hederacea); assay: Postemergence herbicidal activity, morningglory; conditions: rate of application 0.3 Kg/Ha, rated after 12-17 days
[5] = test system: soybean (Glycine max var. Winchester); assay: Preemergence herbicidal activity, soybean; conditions: Rate of Application 0.3 Kg/Ha, examined after 12-17 days
[6] = test system: blackgrass (Aloepecurus myosuroides); assay: Postemergence herbicidal activity, blackgrass; conditions: rate of application 0.3 Kg/Ha, rated after 12-17 days
[7] = test system: field corn (Zea mays var. Pioneer 3732); assay: Preemergence herbicidal activity, corn; conditions: Rate of Application 0.3 Kg/Ha, examined after 12-17 days
[8] = test system: green foxtail (Setaria viridis); assay: Postemergence herbicidal activity, green foxtail; conditions: rate of application 0.3 Kg/Ha, rated after 12-17 days
[9] = test system: green foxtail (Setaria viridis); assay: Preemergence herbicidal activity, green foxtail; conditions: Rate of Application 0.3 Kg/Ha, examined after 12-17 days
[10] = test system: common cocklebur (Xanthium strumarium L.); assay: Preemergence herbicidal activity, cocklebur; conditions: Rate of Application 0.3 Kg/Ha, examined after 12-17 days
[11] = test system: common cocklebur (Xanthium strumarium L.); assay: Postemergence herbicidal activity, cocklebur; conditions: rate of application 0.3 Kg/Ha, rated after 12-17 days
[12] = test system: soybean (Glycine max var. Winchester); assay: Postemergence herbicidal activity, soybean; conditions: rate of application 0.3 Kg/Ha, rated after 12-17 days
[13] = test system: wheat (Triticum aestivum var. Lew); assay: Preemergence herbicidal activity, wheat; conditions: Rate of Application 0.3 Kg/Ha, examined after 12-17 days
[14] = test system: Johnsongrass (Sorghum halepense); assay: Postemergence herbicidal activity, johnsongrass; conditions: rate of application 0.3 Kg/Ha, rated after 12-17 days
[15] = test system: velvetleaf (Abutilon theophrasti); assay: Preemergence herbicidal activity, velvetleaf; conditions: Rate of Application 0.3 Kg/Ha, examined after 12-17 days
[16] = test system: morningglory (Ipomea lacunosa or Ipomea hederacea); assay: Preemergence herbicidal activity, morningglory; conditions: Rate of Application 0.3 Kg/Ha, examined after 12-17 days
[17] = test system: velvetleaf (Abutilon theophrasti); assay: Postemergence herbicidal activity, velvetleaf; conditions: rate of application 0.3 Kg/Ha, rated after 12-17 days
[18] = test system: field corn (Zea mays var. Pioneer 3732); assay: Postemergence herbicidal activity, corn; conditions: rate of application 0.3 Kg/Ha, rated after 12-17 days
[19] = test system: common chickweed (Stellaria media); assay: Postemergence herbicidal activity, chickweed; conditions: rate of application 0.3 Kg/Ha, rated after 12-17 days
[20] = test system: blackgrass (Aloepecurus myosuroides); assay: Preemergence herbicidal activity, blackgrass; conditions: Rate of Application 0.3 Kg/Ha, examined after 12-17 days

SMILES | Postemergence herbicidal activity (% control) WHT [1] [%] | PREEMERGENCE HERBICIDAL ACTIVITY (% CONTROL) STEME [2] [%] | PREEMERGENCE HERBICIDAL ACTIVITY (% CONTROL) SORHA [3] [%] | Postemergence herbicidal activity (% control) IPOSS [4] [%] | PREEMERGENCE HERBICIDAL ACTIVITY (% CONTROL) SOY [5] [%] | Postemergence herbicidal activity (% control) ALOMY [6] [%] | PREEMERGENCE HERBICIDAL ACTIVITY (% CONTROL) CRN [7] [%] | Postemergence herbicidal activity (% control) SETVI [8] [%] | PREEMERGENCE HERBICIDAL ACTIVITY (% CONTROL) SETVI [9] [%] | PREEMERGENCE HERBICIDAL ACTIVITY (% CONTROL) XANPE [10] [%] | Postemergence herbicidal activity (% control) XANPE [11] [%] | Postemergence herbicidal activity (% control) SOY [12] [%] | PREEMERGENCE HERBICIDAL ACTIVITY (% CONTROL) WHT [13] [%] | Postemergence herbicidal activity (% control) SORHA [14] [%] | PREEMERGENCE HERBICIDAL ACTIVITY (% CONTROL) ABUTH [15] [%] | PREEMERGENCE HERBICIDAL ACTIVITY (% CONTROL) IPOSS [16] [%] | Postemergence herbicidal activity (% control) ABUTH [17] [%] | Postemergence herbicidal activity (% control) CRN [18] [%] | Postemergence herbicidal activity (% control) STEME [19] [%] | PREEMERGENCE HERBICIDAL ACTIVITY (% CONTROL) ALOMY [20] [%]
Cn1c(C(F)(F)F)cc(=O)n(-c2c(F)cc(Cl)c3[nH]c(C4CCCCC4)nc23)c1=O [Compound 373] | 80 | 100 | 90 | 100 | 100 | 100 | 90 | 100 | 100 | 100 | 100 | 100 | 70 | 100 | 100 | 100 | 100 | 100 | 100 | 70
CC(C)c1nc2c(-n3c(=O)cc(C(F)(F)F)n(C)c3=O)c(F)cc(Cl)c2[nH]1 [Compound 368] | 100 | 100 | 100 | 100 | 100 | 100 | 95 | 100 | 100 | 100 | 100 | 100 | 100 | 100 | 100 | 100 | 100 | 100 | 100 | 95
Cn1c(C(F)(F)F)cc(=O)n(-c2c(F)cc(Cl)c3cc(C(C)(C)O)oc23)c1=O [Compound 242] | 100 | 100 | 100 | 100 | 100 | 100 | 100 | 100 | 100 | 100 | 100 | 100 | 100 | 100 | 100 | 100 | 100 | 100 | 100 | 100
Cc1nc2c(-n3c(=O)cc(C(F)(F)F)n(C)c3=O)c(F)cc(Br)c2o1 [Compound 16] | 60 | 100 | 95 | 100 | 100 | 70 | 90 | 80 | 100 | 90 | 95 | 95 | 70 | 80 | 100 | 100 | 100 | 80 | 70 | 80
CC(F)c1cc2c(Cl)cc(F)c(-n3c(=O)cc(C(F)(F)F)n(C)c3=O)c2o1 (stereo not shown) [Compound 235] | 100 | 100 | 100 | 100 | 100 | 100 | 100 | 100 | 100 | 100 | 100 | 100 | 90 | 100 | 100 | 100 | 100 | 100 | 100 | 80
CCCC(C)c1cc2c(Cl)cc(F)c(-n3c(=O)cc(C(F)(F)F)n(C)c3=O)c2o1 (stereo not shown) [Compound 229] | 60 | 100 | 100 | 100 | 100 | 70 | 90 | 100 | 100 | 95 | 100 | 95 | 70 | 100 | 100 | 100 | 100 | 80 | 100 | 80
CN(C)C(=O)c1cc2c(Cl)cc(F)c(-n3c(=O)cc(C(F)(F)F)n(C)c3=O)c2o1 [Compound 275] | 70 | 100 | 95 | 100 | 100 | 95 | 100 | 100 | 100 | 100 | 100 | 100 | 80 | 100 | 100 | 100 | 100 | 90 | 100 | 80
CCOC(OCC)c1cc2c(Cl)cc(F)c(-n3c(=O)cc(C(F)(F)F)n(C)c3=O)c2o1 [Compound 245] | 40 | 90 | 80 | 100 | 100 | 50 | 80 | 70 | 100 | 100 | 70 | 85 | 60 | 70 | 100 | 100 | 100 | 75 | 60 | 70
